Source: patent US10329294B2, “Pyrazolopyrimidine inhibitors of IRAK4 activity” (MERCK SHARP & DOHME CORP., priority 2015, dated 2019)
Where a name gives a salt, the structure may show the parent alone.

target: IRAK4 (Homo sapiens (Human), UniProt Q9NWZ3); test: IRAK4 Kinase Assay; type: biochemical; details: IMAP fluorescence polarization, 0.5 nM GST tagged IRAK4, 100 μM ATP, 30 minutes at 25° C.; read-out: IRAK4 IC50
Sequence (Q9NWZ3 whole entry): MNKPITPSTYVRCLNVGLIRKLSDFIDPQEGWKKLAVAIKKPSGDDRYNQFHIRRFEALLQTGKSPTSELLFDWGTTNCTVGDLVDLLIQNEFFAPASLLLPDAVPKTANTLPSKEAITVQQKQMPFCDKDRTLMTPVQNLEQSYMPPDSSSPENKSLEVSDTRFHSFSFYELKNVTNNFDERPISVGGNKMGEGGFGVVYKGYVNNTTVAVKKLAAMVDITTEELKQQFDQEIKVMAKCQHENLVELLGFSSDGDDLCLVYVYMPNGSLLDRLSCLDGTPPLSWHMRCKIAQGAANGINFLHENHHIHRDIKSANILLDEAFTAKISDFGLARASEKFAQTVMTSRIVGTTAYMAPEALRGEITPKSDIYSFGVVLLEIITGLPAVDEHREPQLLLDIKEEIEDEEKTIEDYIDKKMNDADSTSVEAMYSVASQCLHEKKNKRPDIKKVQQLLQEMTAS

Q: With Cn1cc(NC(=O)c2cnn3ccc(N[C@H]4CCC(F)(F)C[C@H]4N)nc23)c(C(F)F)n1 (single isomer, unassigned) [Example 209, 5-{[(1S,2R)- or (1R,2S)-2-amino-4,4-difluorocyclohexyl]amino}-N-[3-(difluoromethyl)-1-methyl-1H-pyrazol-4-yl]pyrazolo[1,5-a]pyrimidine-3-carboxamide] as the molecule, how does the IC50 read?
A: 1 nM

Q: For N[C@@H]1[C@H](Nc2ccn3ncc(C(=O)Nc4cscc4Br)c3n2)CCCC1(F)F [Example 122, 5-{[(1R,2R)-2-amino-3,3-difluorocyclohexyl]amino}-N-(4-bromothiophen-3-yl)pyrazolo[1,5-a]pyrimidine-3-carboxamide trifluoroacetate], which IC50 is on record?
A: 1140 nM

Q: Cn1cc(NC(=O)c2cnn3ccc(N4CC[C@H]5CC[C@@H](C4)N5)nc23)c(C(F)(F)F)n1 (single isomer, unassigned) [Example 89, 5-[(1R,6S)- or (1S,6R)-3,9-diazabicyclo[4.2.1]non-3-yl]-N-[1-methyl-3-(trifluoromethyl)-1H-pyrazol-4-yl]pyrazolo[1,5-a]pyrimidine-3-carboxamide trifluoroacetate] was tested. Which IC50 did it give?
A: 270 nM

Q: For CC(C)n1cc(NC(=O)c2cnn3ccc(N4CCNCC4)nc23)c(C(F)(F)F)n1 [Example 298, N-[1-(1-methylethyl)-3-(trifluoromethyl)-1H-pyrazol-4-yl]-5-piperazin-1-ylpyrazolo[1,5-a]pyrimidine-3-carboxamide trifluoroacetate], which IC50 is on record?
A: 17 nM

Q: For Cn1cc(NC(=O)c2cnn3ccc(NC4CCCCC4)nc23)cn1 [Example 3, 5-(cyclohexylamino)-N-(1-methyl-1H-pyrazol-4-yl)pyrazolo[1,5-a]pyrimidine-3-carboxamide trifluoroacetate], which IC50 is on record?
A: 237 nM

Q: How did the IC50 turn out when O=C(Nc1cscc1C(F)F)c1cnn2ccc(N3C[C@H]4CC[C@@H]3CN4)nc12 (single isomer, unassigned) [Example 155, 5-[(1S,4S)- or (1R,4R)-2,5-diazabicyclo[2.2.2]oct-2-yl]-N-[4-(difluoromethyl)thiophen-3-yl]pyrazolo[1,5-a]pyrimidine-3-carboxamide trifluoroacetate] was run?
A: 32 nM

Q: How did the IC50 turn out when O=C(Nc1ccccc1I)c1cnn2ccc(N[C@@H]3CCCC[C@@H]3O)nc12 [Example 101, 5-{[(1R,2S)-2-hydroxycyclohexyl]amino}-N-(2-iodophenyl)pyrazolo[1,5-a]pyrimidine-3-carboxamide] was run?
A: 7650 nM

Q: Cn1cc(NC(=O)c2cnn3ccc(N[C@@H]4CNC[C@@H](F)C4)nc23)c(C(F)(F)F)n1 [Example 255, 5-{[(3S,5S)-5-fluoropiperidin-3-yl]amino}-N-[1-methyl-3-(trifluoromethyl)-1H-pyrazol-4-yl]pyrazolo[1,5-a]pyrimidine-3-carboxamide] was tested. Which IC50 did it give?
A: 36 nM

Q: For Cn1cc(NC(=O)c2cnn3ccc(N4CCCNCC4)nc23)c(Cl)n1 [Example 148, N-(3-chloro-1-methyl-1H-pyrazol-4-yl)-5-(1,4-diazepan-1-yl)pyrazolo[1,5-a]pyrimidine-3-carboxamide trifluoroacetate], which IC50 is on record?
A: 113 nM

Q: For N[C@@H]1[C@H](Nc2ccn3ncc(C(=O)Nc4cn(C(F)F)nc4C(F)(F)F)c3n2)CCCC1(F)F [Example 71, 5-{[(1R,2R)-2-amino-3,3-difluorocyclohexyl]amino}-N-[1-(difluoromethyl)-3-(trifluoromethyl)-1H-pyrazol-4-yl]pyrazolo[1,5-a]pyrimidine-3-carboxamide trifluoroacetate], which IC50 is on record?
A: 328 nM

Q: How did the IC50 turn out when N[C@H]1CCCC[C@H]1Nc1ccn2ncc(C(=O)Nc3cscc3Br)c2n1 [Example 76, 5-{[(1R,2S)-2-aminocyclohexyl]amino}-N-(4-bromothiophen-3-yl)pyrazolo[1,5-a]pyrimidine-3-carboxamide trifluoroacetate] was run?
A: 0.9 nM

Q: How did the IC50 turn out when CN(C)[C@H]1CCCC[C@H]1Nc1ccn2ncc(C(=O)Nc3cn(C)nc3C(F)(F)F)c2n1 [Example 263, 5-(((1R,2S)-2-(Dimethylamino)cyclohexyl)amino)-N-(1-methyl-3-(trifluoromethyl)-1H-pyrazol-4-yl)pyrazolo[1,5-a]pyrimidine-3-carboxamide] was run?
A: 72 nM

Q: Which IC50 does the source give for Cn1cc(NC(=O)c2cnn3ccc(N4CCC[C@H](O)C4)nc23)c(C(F)(F)F)n1 [Example 22, 5-[(3S)-3-hydroxypiperidin-1-yl]-N-[1-methyl-3-(trifluoromethyl)-1H-pyrazol-4-yl]pyrazolo[1,5-a]pyrimidine-3-carboxamide] here?
A: 2 nM

Q: N[C@@H]1[C@H](Nc2ccn3ncc(C(=O)Nc4ccccc4C(F)F)c3n2)CCCC1(F)F [Example 132, 5-{[(1R,2R)-2-amino-3,3-difluorocyclohexyl]amino}-N-[2-(difluoromethyl)phenyl] pyrazolo[1,5-a]pyrimidine-3-carboxamide trifluoroacetate] was tested. Which IC50 did it give?
A: 2100 nM

Q: Cn1cc(NC(=O)c2cnn3ccc(N4CCC[C@@H](O)C4)nc23)c(C(F)(F)F)n1 [Example 23, 5-[(3R)-3-hydroxypiperidin-1-yl]-N-[1-methyl-3-(trifluoromethyl)-1H-pyrazol-4-yl]pyrazolo[1,5-a]pyrimidine-3-carboxamide] was tested. Which IC50 did it give?
A: 0.9 nM

Q: With Cn1cc(NC(=O)c2cnn3ccc(N[C@@H]4CCCNC4)nc23)c(C(F)(F)F)n1 [Example 9, N-[1-methyl-3-(trifluoromethyl)-1H-pyrazol-4-yl]-5-[(3R)-piperidin-3-ylamino]pyrazolo[1,5-a]pyrimidine-3-carboxamide trifluoroacetate] as the molecule, how does the IC50 read?
A: 0.5 nM

Q: For O=C(Nc1ccsc1Cl)c1cnn2ccc(N3CCCNCC3)nc12 [Example 117, N-(2-chlorothiophen-3-yl)-5-(1,4-diazepan-1-yl)pyrazolo[1,5-a]pyrimidine-3-carboxamide trifluoroacetate], which IC50 is on record?
A: 403 nM

Q: How did the IC50 turn out when O=C(Nc1cn(CC(F)F)nc1C(F)(F)F)c1cnn2ccc(N[C@@H]3CCCC[C@@H]3O)nc12 [Example 63, N-[1-(2,2-difluoroethyl)-3-(trifluoromethyl)-1H-pyrazol-4-yl]-5-{[(1R,2S)-2-hydroxycyclohexyl]amino} pyrazolo[1,5-a]pyrimidine-3-carboxamide trifluoroacetate] was run?
A: 38 nM

Q: Which IC50 does the source give for Cc1cnc(-c2nn(C)cc2NC(=O)c2cnn3ccc(N[C@@H]4CCCC[C@@H]4N)nc23)o1 [Example 285, 5-{[(1R,2S)-2-aminocyclohexyl]amino}-N-[1-methyl-3-(5-methyl-1,3-oxazol-2-yl)-1H-pyrazol-4-yl]pyrazolo[1,5-a]pyrimidine-3-carboxamide trifluoroacetate] here?
A: 24 nM

Q: N[C@H]1CCCC[C@H]1Nc1ccn2ncc(C(=O)Nc3ccccc3Br)c2n1 [Example 113, 5-{[(1R,2S)-2-aminocyclohexyl]amino}-N-(2-bromophenyl)pyrazolo[1,5-a]pyrimidine-3-carboxamide trifluoroacetate] was tested. Which IC50 did it give?
A: 2 nM

Q: With Cn1cc(NC(=O)c2cnn3ccc(N[C@@H]4CCCC(F)(F)[C@@H]4N)nc23)c(Cl)n1 [Example 150, 5-{[(1R,2R)-2-amino-3,3-difluorocyclohexyl]amino}-N-(3-chloro-1-methyl-1H-pyrazol-4-yl)pyrazolo[1,5-a]pyrimidine-3-carboxamide] as the molecule, how does the IC50 read?
A: 109 nM

Q: How did the IC50 turn out when N[C@H]1CCCC[C@H]1Nc1ccn2ncc(C(=O)Nc3c[nH]nc3C(F)(F)F)c2n1 [Example 301, 5-{[(1R,2S)-2-aminocyclohexyl]amino}-N-[3-(trifluoromethyl)-1H-pyrazol-4-yl]pyrazolo[1,5-a]pyrimidine-3-carboxamide trifluoroacetate] was run?
A: 0.8 nM

Q: With Cn1cc(NC(=O)c2cnn3ccc(N[C@H]4CNCC(F)(F)C4)nc23)c(C(F)F)n1 (single isomer, unassigned) [Example 235, N-[3-(difluoromethyl)-1-methyl-1H-pyrazol-4-yl]-5-{[(3S)- or (3R)-5,5-difluoropiperidin-3-yl]amino}pyrazolo[1,5-a]pyrimidine-3-carboxamide] as the molecule, how does the IC50 read?
A: 0.7 nM

Q: For O=C(Nc1ccsc1Br)c1cnn2ccc(N3CC4CCC3CN4)nc12 (stereo not shown) [Example 142, N-(2-bromothiophen-3-yl)-5-(2,5-diazabicyclo[2.2.2]oct-2-yl)pyrazolo[1,5-a]pyrimidine-3-carboxamide trifluoroacetate], which IC50 is on record?
A: 524 nM

Q: Which IC50 does the source give for Cn1cc(NC(=O)c2cnn3ccc(N4CC5CCC4CCN5)nc23)c(C(F)(F)F)n1 (stereo not shown) [Example 73, 5-(2,6-diazabicyclo[3.2.2]non-6-yl)-N-[1-methyl-3-(trifluoromethyl)-1H-pyrazol-4-yl]pyrazolo[1,5-a]pyrimidine-3-carboxamide trifluoroacetate] here?
A: 144 nM

Q: For Cn1cc(NC(=O)c2cnn3ccc(N[C@@H]4CCCC[C@@H]4O)nc23)c(Cl)n1 [Example 186, N-(3-chloro-1-methyl-1H-pyrazol-4-yl)-5-{[(1R,2S)-2-hydroxycyclohexyl]amino} pyrazolo[1,5-a]pyrimidine-3-carboxamide], which IC50 is on record?
A: 24 nM

Q: For Cn1cc(NC(=O)c2cnn3ccc(N4C5CCC4CNC5)nc23)c(C(F)F)n1 [Example 229, 5-(3,8-diazabicyclo[3.2.1]oct-8-yl)-N-[3-(difluoromethyl)-1-methyl-1H-pyrazol-4-yl]pyrazolo[1,5-a]pyrimidine-3-carboxamide trifluoroacetate], which IC50 is on record?
A: 0.5 nM

Q: For Cn1cc(NC(=O)c2cnn3ccc(N[C@H]4CNC[C@@H](F)C4)nc23)c(C(F)(F)F)n1 [Example 257, 5-{[(3R,5S)-5-fluoropiperidin-3-yl]amino}-N-[1-methyl-3-(trifluoromethyl)-1H-pyrazol-4-yl]pyrazolo[1,5-a]pyrimidine-3-carboxamide hydrochloride], which IC50 is on record?
A: 0.6 nM

Q: With N[C@H]1CCCC[C@H]1Nc1ccn2ncc(C(=O)Nc3csc(CO)c3)c2n1 [Example 275, 5-(((1R,2S)-2-Aminocyclohexyl)amino)-N-(5-(hydroxymethyl)thiophen-3-yl)pyrazolo[1,5-a]pyrimidine-3-carboxamide] as the molecule, how does the IC50 read?
A: 17 nM

Q: Which IC50 does the source give for O=C(Nc1ccccc1C(F)F)c1cnn2ccc(N3CC4CCC3CN4)nc12 (stereo not shown) [Example 146, 5-(2,5-diazabicyclo[2.2.2]oct-2-yl)-N-[2-(difluoromethyl)phenyl] pyrazolo[1,5-a]pyrimidine-3-carboxamide trifluoroacetate] here?
A: 1460 nM

Q: For N#Cc1ccccc1NC(=O)c1cnn2ccc(N3CCC[C@@H](N)C3)nc12 [Example 269, 5-[(3R)-3-aminopiperidin-1-yl]-N-(2-cyanophenyl)pyrazolo[1,5-a]pyrimidine-3-carboxamide trifluoroacetate], which IC50 is on record?
A: 143 nM
